According to US20230416256A1, “SMALL MOLECULE INHIBITORS OF NF-kB INDUCING KINASE” (Janssen Pharmaceutica NV, priority 2020, published 2023):
pIC50: −log10 of the molar value. Like-named read-outs stand apart in the source and are kept apart here.

How the values were obtained:
[1] = molecular target: recombinant human NF-kappaB-inducing kinase (NIK/MAP3K14) (Homo sapiens, UniProt Q99558); test: Inhibition of auto-phosphorylation of recombinant human NIK/MAP3K14 activity (AlphaScreen); assay type: biochemical; settings: GST-tagged NIK/MAP3K14 1 nM, 5 μM ATP, 2 h at 25° C.; average of values obtained
Sequence of recombinant human NF-kappaB-inducing kinase (NIK/MAP3K14) (Q99558 whole entry): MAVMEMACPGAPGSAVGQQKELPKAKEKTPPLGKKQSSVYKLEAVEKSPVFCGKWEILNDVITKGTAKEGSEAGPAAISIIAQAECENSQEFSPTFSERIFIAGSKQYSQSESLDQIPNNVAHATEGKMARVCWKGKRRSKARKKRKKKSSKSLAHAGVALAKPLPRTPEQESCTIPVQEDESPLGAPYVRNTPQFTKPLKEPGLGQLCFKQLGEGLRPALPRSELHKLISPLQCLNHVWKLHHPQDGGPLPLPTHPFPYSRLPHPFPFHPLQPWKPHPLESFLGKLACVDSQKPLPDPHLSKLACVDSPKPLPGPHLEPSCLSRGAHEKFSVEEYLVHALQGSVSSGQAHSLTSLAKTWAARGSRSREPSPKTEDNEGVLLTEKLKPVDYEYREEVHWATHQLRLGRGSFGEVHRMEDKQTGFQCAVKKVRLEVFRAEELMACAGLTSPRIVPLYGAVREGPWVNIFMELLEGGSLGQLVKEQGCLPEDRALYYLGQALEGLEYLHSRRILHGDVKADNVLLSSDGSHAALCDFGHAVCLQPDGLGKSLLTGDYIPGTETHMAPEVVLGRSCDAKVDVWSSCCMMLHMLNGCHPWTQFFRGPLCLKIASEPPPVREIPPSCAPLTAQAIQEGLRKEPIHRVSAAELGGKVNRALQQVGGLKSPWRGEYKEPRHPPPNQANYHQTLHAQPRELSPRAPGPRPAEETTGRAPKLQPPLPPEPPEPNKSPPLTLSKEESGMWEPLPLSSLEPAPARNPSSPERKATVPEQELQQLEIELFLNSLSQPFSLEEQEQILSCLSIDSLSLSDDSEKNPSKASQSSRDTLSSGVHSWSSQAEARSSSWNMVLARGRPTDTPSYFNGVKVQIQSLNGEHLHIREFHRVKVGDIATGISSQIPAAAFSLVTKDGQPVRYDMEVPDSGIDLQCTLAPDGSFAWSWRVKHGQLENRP
How it was run: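 GST-tagged NIK (1 nM) auto-phosphorylated for 2 h at 25 °C with 5 μM ATP in 50 mM Tris pH 7.5, 5 mM MgCl2, 0.7% DMSO. Phospho-Ser176/180 was detected by AlphaScreen using an anti-phospho-IKK antibody. IC50 came from sigmoidal fits of % inhibition versus high (full activity) and low (no ATP) controls.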

[2] = tested on: p-IKKα levels in L363 (NIK translocated multiple myeloma) cells; test: Effect of compounds on p-IKKα levels in L363 cells (AlphaLISA SureFire Ultra); assay type: cell-based, human; settings: Homo sapiens, 10 μM MG132, 6 h, average of values obtained, read-out: Assay 2 IC50
How it was run: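 L363 cells were BAFF-stimulated overnight (250 ng/ml) in DMEM/0.5% BSA, then exposed to an 11-point 1:3 compound series (0.3% DMSO) with BAFF and 10 μM MG132 for 6 h at 37 °C. p-IKKα (Ser176/180) was measured by AlphaLISA SureFire Ultra. IC50 was fitted from % inhibition normalized to stimulated and unstimulated controls.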

[3] = L-363, 250 ng/ml BAFF stimulated
[4] = L-363, 6 h, 250 ng/ml BAFF stimulated

Row | SMILES | pIC50 [1] | pIC50 [2, 3] | pIC50 [2, 4]
1 | CN1C(=O)[C@](O)(c2cccc(-c3csc(-c4c[nH]c5ncccc45)n3)c2)c2ncccc21 [Example 92, (S)-3-(3-(2-(1H-Pyrrolo[2,3-b]pyridin-3-yl)thiazol-4-yl)phenyl)-3-hydroxy-1-methyl-1,3-dihydro-2H-pyrrolo[3,2-b]pyridin-2-one] | ≥ 7.00 | < 6.30 | 
2 | CN1CC[C@@](O)(c2cccc(-c3coc(-c4c[nH]c5ncccc45)c3)c2)C1=O [Example 93, (R)-3-(3-(5-(1H-Pyrrolo[2,3-b]pyridin-3-yl)furan-3-yl)phenyl)-3-hydroxy-1-methylpyrrolidin-2-one] | ≥ 7.00 | < 6.30 | 
3 | CN1CC[C@@](O)(c2cccc(-c3csc(-c4c[nH]c5ncc(F)c(F)c45)n3)c2)C1=O [Example 94, (R)-3-(3-(2-(4,5-Difluoro-1H-pyrrolo[2,3-b]pyridin-3-yl)thiazol-4-yl)phenyl)-3-hydroxy-1-methylpyrrolidin-2-one] | ≥ 7.00 | < 6.30 | 
4 | CN1CC[C@@](O)(c2cccc(-c3csc(-c4c[nH]c5ncc(Cl)c(F)c45)n3)c2)C1=O [Example 95, (R)-3-(3-(2-(5-Chloro-4-fluoro-1H-pyrrolo[2,3-b]pyridin-3-yl)thiazol-4-yl)phenyl)-3-hydroxy-1-methylpyrrolidin-2-one] | ≥ 7.00 | < 6.30 | 
5 | O[C@@]1(c2cccc(-c3csc(-c4c[nH]c5ncc(F)c(F)c45)n3)c2)CCn2ccnc21 [Example 96, (R)-7-(3-(2-(4,5-Difluoro-1H-pyrrolo[2,3-b]pyridin-3-yl)thiazol-4-yl)phenyl)-6,7-dihydro-5H-pyrrolo[1,2-a]imidazol-7-ol] | ≥ 7.00 |  | < 6.30
6 | O[C@@]1(c2cccc(-c3csc(-c4c[nH]c5ncc(Cl)c(F)c45)n3)c2)CCn2ccnc21 [Example 97, (R)-7-(3-(2-(5-Chloro-4-fluoro-1H-pyrrolo[2,3-b]pyridin-3-yl)thiazol-4-yl)phenyl)-6,7-dihydro-5H-pyrrolo[1,2-a]imidazol-7-ol] | ≥ 7.00 |  | 6.30 to 7.00
7 | CN1CC[C@@](O)(c2cccc(-c3nc(-c4c[nH]c5ncccc45)sc3C#N)c2)C1=O [Example 98, (R)-4-(3-(3-Hydroxy-1-methyl-2-oxopyrrolidin-3-yl)phenyl)-2-(1H-pyrrolo[2,3-b]pyridin-3-yl)thiazole-5-carbonitrile] | < 6.30 | < 6.30 | 
8 | CN1CC[C@@](O)(c2cccc(-c3csc(-c4n[nH]c5ncccc45)n3)c2)C1=O [Example 100, (R)-3-(3-(2-(1H-Pyrazolo[3,4-b]pyridin-3-yl)thiazol-4-yl)phenyl)-3-hydroxy-1-methylpyrrolidin-2-one] | < 6.30 | < 6.30 | 
9 | C[C@@]1(O)C[C@@](O)(c2cccc(-c3csc(-c4c[nH]c5ncccc45)n3)c2)c2ncccc21 [Example 106, (5R,7R)-7-(3-(2-(1H-Pyrrolo[2,3-b]pyridin-3-yl)thiazol-4-yl)phenyl)-5-methyl-6,7-dihydro-5H-cyclopenta[b]pyridine-5,7-diol] | < 6.30 |  | < 6.30
10 | CN1CC[C@@](O)(c2cccc(-c3csc(-c4c(F)[nH]c5ncc(F)cc45)n3)c2)C1=O [Example 110, (R)-3-(3-(2-(2,5-Difluoro-1H-pyrrolo[2,3-b]pyridin-3-yl)thiazol-4-yl)phenyl)-3-hydroxy-1-methylpyrrolidin-2-one] | 6.30 to 7.00 | < 6.30 | 
11 | CN1CC[C@@](O)(c2cccc(-c3csc(-n4ccc5nc(N)ccc54)n3)c2)C1=O [Example 112, (R)-3-(3-(2-(5-Amino-1H-pyrrolo[3,2-b]pyridin-1-yl)thiazol-4-yl)phenyl)-3-hydroxy-1-methylpyrrolidin-2-one] | < 6.30 | < 6.30 | 
12 | Cc1ccc2[nH]cc(-c3nc(-c4cccc([C@]5(O)CCN(C)C5=O)c4)cs3)c2n1 [Example 113, (R)-3-Hydroxy-1-methyl-3-(3-(2-(5-methyl-1H-pyrrolo[3,2-b]pyridin-3-yl)thiazol-4-yl)phenyl)pyrrolidin-2-one] | 6.30 to 7.00 | < 6.30 | 
